This is an account of results in US9120812B2, “Pyrimidooxazocine derivatives as mTOR-inhibitors” (SANOFI, priority 2012, dated 2015).

Experiment [1] addresses mTOR (human recombinant aa mTOR 1360-2549) (Homo sapiens (Human), UniProt P42345). Kind of experiment: mTOR enzymatic test by TR-FRET (phosphorylation of GFP-4EBP1). In kind it is biochemical. In outline: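 After a 30 min room-temperature kinase reaction, EDTA (10 mM final) and Tb-labelled phospho-Thr46 antibody (2 nM final) were added and incubated 60 min. Energy transfer from Tb to phosphorylated GFP-4EBP1 was read at 340 nm excitation, emissions 490/520 nm. Values derive from the 520/490 fluorescence ratio.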

The next experiment concerns the target PI3Kα (p110α/p85α) (Homo sapiens (Human), UniProt P42336). Description: PI3Kα enzymatic test by measuring the consumption of ATP. Format: biochemical. The method in brief:
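ATP consumption read out by KinaseGlo luminescence after a 90 min reaction of 1.7 μg/ml PI3Kα (p110α/p85α) with 2 μM ATP and 50 μM PIP2, buffered at pH 7.5 (Tris, 10 mM MgCl2, 1 mM EGTA, 0.03% Chaps, 1 mM DTT). Threefold dilution series over ≥10 000-fold range yield IC50.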

For a further experiment, the system named is U87MG tumour cells. Kind of experiment: Test of in vitro proliferation of U87MG tumour cells. Format: cell-based. The conditions noted are these: Homo sapiens, U-87 MG, 72 h, U87MG cells, 72 hours; read-out: U87 Cell Proliferation IC50. The procedure:
Model 4: Test of in vitro Proliferation of U87MG Tumour Cells.
The cell growth is determined with the reagent CellTiter 96 AQueous One Solution Cell Proliferation Assay from Promega (Cat. No. G3581).

The subject of the next experiment is Akt-pS473 in U87MG cells. The conditions noted are these: Homo sapiens, U-87 MG, read-out: U87 Akt-pS473 % Inhibition or IC50, nM (IC50), U87MG cells.

Chain of mTOR (human recombinant aa mTOR 1360-2549) (P42345 1360-2549): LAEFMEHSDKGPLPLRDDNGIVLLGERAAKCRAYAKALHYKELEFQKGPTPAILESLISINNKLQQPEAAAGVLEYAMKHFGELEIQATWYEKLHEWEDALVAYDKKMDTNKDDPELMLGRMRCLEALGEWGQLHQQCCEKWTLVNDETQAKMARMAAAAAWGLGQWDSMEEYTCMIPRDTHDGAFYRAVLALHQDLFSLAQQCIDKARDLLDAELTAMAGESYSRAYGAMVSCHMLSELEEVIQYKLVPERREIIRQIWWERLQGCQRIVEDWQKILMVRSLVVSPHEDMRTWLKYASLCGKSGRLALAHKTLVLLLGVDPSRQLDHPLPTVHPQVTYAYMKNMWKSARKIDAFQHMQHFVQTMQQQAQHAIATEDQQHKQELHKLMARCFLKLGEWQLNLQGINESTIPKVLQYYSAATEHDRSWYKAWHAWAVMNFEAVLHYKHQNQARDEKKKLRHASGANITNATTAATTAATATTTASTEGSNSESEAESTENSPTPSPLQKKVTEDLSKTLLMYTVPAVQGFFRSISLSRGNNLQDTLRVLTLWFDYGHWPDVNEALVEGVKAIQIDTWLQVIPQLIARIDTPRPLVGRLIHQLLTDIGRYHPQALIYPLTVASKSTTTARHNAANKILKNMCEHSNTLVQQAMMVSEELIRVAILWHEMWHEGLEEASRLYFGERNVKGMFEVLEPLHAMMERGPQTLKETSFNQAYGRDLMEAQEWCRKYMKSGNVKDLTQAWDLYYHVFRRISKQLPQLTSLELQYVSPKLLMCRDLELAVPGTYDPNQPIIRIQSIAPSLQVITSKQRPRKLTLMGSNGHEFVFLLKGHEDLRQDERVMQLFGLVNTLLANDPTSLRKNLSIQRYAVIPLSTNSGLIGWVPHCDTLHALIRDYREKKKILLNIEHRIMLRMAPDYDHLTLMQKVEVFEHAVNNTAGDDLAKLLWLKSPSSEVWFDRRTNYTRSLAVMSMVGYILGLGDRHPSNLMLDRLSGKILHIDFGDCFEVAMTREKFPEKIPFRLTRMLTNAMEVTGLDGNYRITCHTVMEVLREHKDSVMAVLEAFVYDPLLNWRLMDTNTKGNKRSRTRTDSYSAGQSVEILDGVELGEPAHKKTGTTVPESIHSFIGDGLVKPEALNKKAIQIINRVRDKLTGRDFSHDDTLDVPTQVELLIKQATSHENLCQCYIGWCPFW
Chain of PI3Kα (p110α/p85α) (P42336 whole entry): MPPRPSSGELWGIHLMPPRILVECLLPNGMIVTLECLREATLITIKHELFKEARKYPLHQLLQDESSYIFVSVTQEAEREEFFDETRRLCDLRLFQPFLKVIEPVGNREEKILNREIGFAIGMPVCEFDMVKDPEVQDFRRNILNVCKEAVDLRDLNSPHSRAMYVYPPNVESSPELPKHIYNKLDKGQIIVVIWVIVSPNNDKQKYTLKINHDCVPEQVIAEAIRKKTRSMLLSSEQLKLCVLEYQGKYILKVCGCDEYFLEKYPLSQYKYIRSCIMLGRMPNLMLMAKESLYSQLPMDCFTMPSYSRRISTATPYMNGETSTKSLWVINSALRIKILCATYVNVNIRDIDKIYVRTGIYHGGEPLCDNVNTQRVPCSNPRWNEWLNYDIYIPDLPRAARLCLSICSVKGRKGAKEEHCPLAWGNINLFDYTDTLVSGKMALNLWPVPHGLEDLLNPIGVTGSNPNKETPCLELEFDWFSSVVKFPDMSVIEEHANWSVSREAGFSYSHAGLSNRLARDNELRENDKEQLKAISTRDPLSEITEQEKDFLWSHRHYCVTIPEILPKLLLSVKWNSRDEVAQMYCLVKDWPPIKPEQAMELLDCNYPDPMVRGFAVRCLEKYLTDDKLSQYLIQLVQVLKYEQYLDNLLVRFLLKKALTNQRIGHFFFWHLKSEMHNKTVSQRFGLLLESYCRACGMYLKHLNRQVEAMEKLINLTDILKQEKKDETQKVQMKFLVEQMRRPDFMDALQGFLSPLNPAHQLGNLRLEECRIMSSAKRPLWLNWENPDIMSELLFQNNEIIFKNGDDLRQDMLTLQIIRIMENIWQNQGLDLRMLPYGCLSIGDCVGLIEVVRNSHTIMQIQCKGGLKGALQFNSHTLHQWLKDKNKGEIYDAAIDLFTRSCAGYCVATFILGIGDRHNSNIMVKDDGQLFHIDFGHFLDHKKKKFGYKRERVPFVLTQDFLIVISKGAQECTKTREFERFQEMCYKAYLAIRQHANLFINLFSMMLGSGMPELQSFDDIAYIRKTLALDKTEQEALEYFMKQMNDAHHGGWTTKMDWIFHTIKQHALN
Chain of PI3Kα (p110α/p85α) (P27986 whole entry partner): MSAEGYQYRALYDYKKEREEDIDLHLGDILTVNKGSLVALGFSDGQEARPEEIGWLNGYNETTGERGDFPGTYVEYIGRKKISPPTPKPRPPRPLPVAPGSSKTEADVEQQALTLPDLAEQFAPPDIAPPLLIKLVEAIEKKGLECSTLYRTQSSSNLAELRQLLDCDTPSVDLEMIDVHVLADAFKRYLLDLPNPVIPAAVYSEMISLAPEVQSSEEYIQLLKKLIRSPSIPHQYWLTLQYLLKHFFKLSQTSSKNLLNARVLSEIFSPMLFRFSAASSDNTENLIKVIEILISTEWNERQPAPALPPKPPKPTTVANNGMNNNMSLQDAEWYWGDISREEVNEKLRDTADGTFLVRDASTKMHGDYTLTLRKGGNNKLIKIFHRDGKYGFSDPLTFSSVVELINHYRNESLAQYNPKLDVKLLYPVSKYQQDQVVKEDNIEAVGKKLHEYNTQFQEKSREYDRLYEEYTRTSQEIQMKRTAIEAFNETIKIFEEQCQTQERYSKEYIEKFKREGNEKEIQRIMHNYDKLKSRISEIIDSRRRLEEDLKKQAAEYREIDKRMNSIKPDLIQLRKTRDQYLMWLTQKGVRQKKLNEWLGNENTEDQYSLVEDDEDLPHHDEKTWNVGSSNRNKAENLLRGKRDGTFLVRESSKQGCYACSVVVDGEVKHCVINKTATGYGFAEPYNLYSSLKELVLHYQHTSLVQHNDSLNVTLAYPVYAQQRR

Take `CCN1CC(C)(C)Oc2nc(N3CCOC[C@@H]3C)nc(-c3ccc(NC(=O)Nc4cc(OC)ccn4)cc3F)c2C1=O` [Example 242, 1-{4-[6-Ethyl-8,8-dimethyl-2-((S)-3-methylmorpholin-4-yl)-5-oxo-5,6,7,8-tetrahydro-9-oxa-1,3,6-triazabenzocyclohepten-4-yl]-3-fluorophenyl}-3-(4-methoxypyridin-2-yl)urea]: the IC50 came to 89 nM in experiment [1], 2300 nM in the experiment on U87MG tumour cells and 770 nM in the experiment on Akt-pS473 in U87MG cells. Also, on PI3Kα (p110α/p85α), the “PI3Ka IC50” value is more than 10000 nM.

Regarding `CCN1CC(C)(C)Oc2nc(N3C4CCC3COC4)nc(-c3ccc(NC(=O)OCCO)cc3F)c2C1=O` [Example 243, {4-[6-Ethyl-8,8-dimethyl-2-(3-oxa-8-azabicyclo[3.2.1]oct-8-yl)-5-oxo-5,6,7,8-tetrahydro-9-oxa-1,3,6-triazabenzocyclohepten-4-yl]-3-fluorophenyl}carbamic acid 2-hydroxyethyl ester], the IC50 in experiment [1] amounted to 63 nM; in the experiment on U87MG tumour cells, 610 nM; in the experiment with Akt-pS473 in U87MG cells, 160 nM. Further, on PI3Kα (p110α/p85α), the “PI3Ka IC50” value was 3870 nM.

`CCN1CC(C)(C)Oc2nc(N3CC4CCC(C3)O4)nc(-c3ccc(NC(=O)OCCO)cc3F)c2C1=O` [Example 246, {4-[6-Ethyl-8,8-dimethyl-2-(8-oxa-3-azabicyclo[3.2.1]oct-3-yl)-5-oxo-5,6,7,8-tetrahydro-9-oxa-1,3,6-triazabenzocyclohepten-4-yl]-3-fluorophenyl}carbamic acid 2-hydroxyethyl ester]: the IC50 in experiment [1] amounted to 82 nM; with U87MG tumour cells, 1600 nM; in the experiment with Akt-pS473 in U87MG cells it was 240 nM. The “PI3Ka IC50” value on PI3Kα (p110α/p85α) is on record as more than 10000 nM.

Take `CCN1CC(C)(C)Oc2nc(N3CC4CCC(C3)O4)nc(-c3ccc(NC(=O)Nc4ccc(C#N)nc4)c(F)c3)c2C1=O` [Example 247, 1-(6-Cyanopyridin-3-yl)-3-{4-[6-ethyl-8,8-dimethyl-2-(8-oxa-3-azabicyclo[3.2.1]oct-3-yl)-5-oxo-5,6,7,8-tetrahydro-9-oxa-1,3,6-triazabenzocyclohepten-4-yl]-2-fluorophenyl}urea]: the IC50 in experiment [1] was 26 nM; in the experiment on U87MG tumour cells it was 62 nM; in the experiment on Akt-pS473 in U87MG cells, 8 nM. Moreover, the “PI3Ka IC50” value at PI3Kα (p110α/p85α) came to 7200 nM.

`CC[C@H]1COCCN1c1ccc(NC(=O)Nc2ccc(-c3nc(N4CCOC[C@@H]4C)nc4c3C(=O)N(CC)CC(C)(C)O4)cc2F)cn1` [Example 248, 1-{4-[6-Ethyl-8,8-dimethyl-2-((S)-3-methylmorpholin-4-yl)-5-oxo-5,6,7,8-tetrahydro-9-oxa-1,3,6-triazabenzocyclohepten-4-yl]-2-fluorophenyl}-3-[6-((S)-3-ethylmorpholin-4-yl)pyridin-3-yl]urea]: the IC50 came to 68 nM in experiment [1], 96 nM with U87MG tumour cells and 29 nM in the experiment on Akt-pS473 in U87MG cells. At PI3Kα (p110α/p85α), the “PI3Ka IC50” value is recorded as more than 10000 nM.

Take `CC[C@H]1COCCN1c1ccc(NC(=O)Nc2ccc(-c3nc(N4C5CCC4COC5)nc4c3C(=O)N(CC)CC(C)(C)O4)cc2F)cn1` [Example 249, 1-{4-[6-Ethyl-8,8-dimethyl-2-(3-oxa-8-azabicyclo[3.2.1]oct-8-yl)-5-oxo-5,6,7,8-tetrahydro-9-oxa-1,3,6-triazabenzocyclohepten-4-yl]-2-fluorophenyl}-3-[6-((S)-3-ethylmorpholin-4-yl)pyridin-3-yl]urea]: the figures for the IC50 (in experiment [1]; with U87MG tumour cells; in the experiment with Akt-pS473 in U87MG cells) were 365 nM, 29 nM and 27 nM, respectively. Besides, the “PI3Ka IC50” value at PI3Kα (p110α/p85α) is recorded as more than 10000 nM.

Turning to `CCN1CC(C)(C)Oc2nc(N3CC4CCC(C3)O4)nc(-c3ccc(NC(=O)Nc4ccc(N5CCOCC5)cn4)cc3)c2C1=O` [Example 250, 1-{4-[6-Ethyl-8,8-dimethyl-2-(8-oxa-3-azabicyclo[3.2.1]oct-3-yl)-5-oxo-5,6,7,8-tetrahydro-9-oxa-1,3,6-triazabenzocyclohepten-4-yl]phenyl}-3-(5-morpholin-4-ylpyridin-2-yl)urea], the IC50 stood at 36 nM in experiment [1], 100 nM in the experiment with U87MG tumour cells and 38 nM with Akt-pS473 in U87MG cells. Besides, the “PI3Ka IC50” value on PI3Kα (p110α/p85α) was more than 10000 nM.

As to `CCN1CC(C)(C)Oc2nc(N3CC4CCC(C3)O4)nc(-c3ccc(NC(=O)Nc4ccc(N5CC6CCC(C5)O6)cn4)cc3)c2C1=O` [Example 251, 1-{4-[6-Ethyl-8,8-dimethyl-2-(8-oxa-3-azabicyclo[3.2.1]oct-3-yl)-5-oxo-5,6,7,8-tetrahydro-9-oxa-1,3,6-triazabenzocyclohepten-4-yl]phenyl}-3-[5-(8-oxa-3-azabicyclo[3.2.1]oct-3-yl)pyridin-2-yl]urea], the IC50 in experiment [1] is 64 nM; in the experiment with U87MG tumour cells, 340 nM; with Akt-pS473 in U87MG cells it was 80 nM. Also, the “PI3Ka IC50” value at PI3Kα (p110α/p85α) was more than 10000 nM.

As to `CCN1CC(C)(C)Oc2nc(N3CCOC[C@@H]3C)nc(-c3ccc(NC(=O)Nc4ccc(N5C[C@@H]6C[C@H]5CO6)nc4)c(F)c3)c2C1=O` [Example 252, 1-{4-[6-Ethyl-8,8-dimethyl-2-((S)-3-methylmorpholin-4-yl)-5-oxo-5,6,7,8-tetrahydro-9-oxa-1,3,6-triazabenzocyclohepten-4-yl]-2-fluorophenyl}-3-[(1S,4S)-6-(2-oxa-5-azabicyclo[2.2.1]hept-5-yl)pyridin-3-yl]urea], the IC50 turned out to be 68 nM in experiment [1], 282 nM with U87MG tumour cells and 48 nM in the experiment on Akt-pS473 in U87MG cells. Moreover, the “PI3Ka IC50” value on PI3Kα (p110α/p85α) is reported as 1360 nM.

In the case of `CCN1CC(C)(C)Oc2nc(N3C4CCC3COC4)nc(-c3ccc(NC(=O)Nc4ccc(N5C[C@@H]6C[C@H]5CO6)nc4)c(F)c3)c2C1=O` [Example 253, 1-{4-[6-Ethyl-8,8-dimethyl-2-(3-oxa-8-azabicyclo[3.2.1]oct-8-yl)-5-oxo-5,6,7,8-tetrahydro-9-oxa-1,3,6-triazabenzocyclohepten-4-yl]-2-fluorophenyl}-3-[(1S,4S)-6-(2-oxa-5-azabicyclo[2.2.1]hept-5-yl)pyridin-3-yl]urea], the values for the IC50 (in experiment [1]; in the experiment with U87MG tumour cells; in the experiment with Akt-pS473 in U87MG cells) were 72 nM, 167 nM and 68 nM, respectively. Further, the “PI3Ka IC50” value at PI3Kα (p110α/p85α) was more than 10000 nM.

Turning to `CCN1CC(C)(C)Oc2nc(N3C4CCC3COC4)nc(-c3ccc(NC(=O)NC4CC4)c(F)c3)c2C1=O` [Example 254, 1-Cyclopropyl-3-{4-[6-ethyl-8,8-dimethyl-2-(3-oxa-8-azabicyclo[3.2.1]oct-8-yl)-5-oxo-5,6,7,8-tetrahydro-9-oxa-1,3,6-triazabenzocyclohepten-4-yl]-2-fluorophenyl}urea], the IC50 worked out at 68 nM in experiment [1], 240 nM with U87MG tumour cells and 68 nM with Akt-pS473 in U87MG cells. In addition, the “PI3Ka IC50” value on PI3Kα (p110α/p85α) was more than 10000 nM.

Take `CCNC(=O)Nc1ccc(-c2nc(N3C4CCC3COC4)nc3c2C(=O)N(CC)CC(C)(C)O3)cc1F` [Example 255, 1-Ethyl-3-{4-[6-ethyl-8,8-dimethyl-2-(3-oxa-8-azabicyclo[3.2.1]oct-8-yl)-5-oxo-5,6,7,8-tetrahydro-9-oxa-1,3,6-triazabenzocyclohepten-4-yl]-2-fluorophenyl}urea]: the IC50 in experiment [1] worked out at 72 nM; with U87MG tumour cells, 210 nM; in the experiment with Akt-pS473 in U87MG cells it was 68 nM. In addition, the “PI3Ka IC50” value on PI3Kα (p110α/p85α) is reported as more than 10000 nM.
